{
  "source": "patent US20250205185A1",
  "about": "(COSMED PHARMACEUTICAL CO., LTD., priority 2022, published 2025)",
  "assay": "Microscope observation of taurine crystals (Test Example 1)",
  "format": "physicochemical",
  "details": "observed with a microscope; for Maximum particle size (length) μm: length = major axis; for Maximum particle size (thickness) μm: thickness = minor axis",
  "data": [
    {"smiles": "NCCS(=O)(=O)O", "note": "[Comparative Example 1, taurine]", "values": [
      {"measurement": "Crystalline form", "result": "Massive"},
      {"measurement": "Maximum particle size (length) μm", "result": 700, "unit": "μm"},
      {"measurement": "Maximum particle size (thickness) μm", "result": 160, "unit": "μm"}
    ]},
    {"smiles": "NCCS(=O)(=O)O", "note": "[Comparative Example 2, taurine]", "values": [
      {"measurement": "Crystalline form", "result": "Massive"},
      {"measurement": "Maximum particle size (length) μm", "result": 2000, "unit": "μm"},
      {"measurement": "Maximum particle size (thickness) μm", "result": 300, "unit": "μm"}
    ]},
    {"smiles": "NCCS(=O)(=O)O", "note": "[Comparative Example 3, taurine, reference compound]", "values": [
      {"measurement": "Crystalline form", "result": "Massive"},
      {"measurement": "Maximum particle size (length) μm", "result": 6740, "unit": "μm"},
      {"measurement": "Maximum particle size (thickness) μm", "result": 1680, "unit": "μm"}
    ]},
    {"smiles": "NCCS(=O)(=O)O", "note": "[Example 1, taurine]", "values": [
      {"measurement": "Crystalline form", "result": "Columnar"},
      {"measurement": "Maximum particle size (length) μm", "result": 280, "unit": "μm"},
      {"measurement": "Maximum particle size (thickness) μm", "result": 145, "unit": "μm"}
    ]},
    {"smiles": "NCCS(=O)(=O)O", "note": "[Example 2, taurine]", "values": [
      {"measurement": "Crystalline form", "result": "Columnar"},
      {"measurement": "Maximum particle size (length) μm", "result": 150, "unit": "μm"},
      {"measurement": "Maximum particle size (thickness) μm", "result": 80, "unit": "μm"}
    ]},
    {"smiles": "NCCS(=O)(=O)O", "note": "[Example 3, taurine]", "values": [
      {"measurement": "Crystalline form", "result": "Columnar"},
      {"measurement": "Maximum particle size (length) μm", "result": 150, "unit": "μm"},
      {"measurement": "Maximum particle size (thickness) μm", "result": 100, "unit": "μm"}
    ]},
    {"smiles": "NCCS(=O)(=O)O", "note": "[Example 4, taurine]", "values": [
      {"measurement": "Crystalline form", "result": "Columnar"},
      {"measurement": "Maximum particle size (length) μm", "result": 100, "unit": "μm"},
      {"measurement": "Maximum particle size (thickness) μm", "result": 70, "unit": "μm"}
    ]},
    {"smiles": "NCCS(=O)(=O)O", "note": "[Example 5, taurine]", "values": [
      {"measurement": "Crystalline form", "result": "Needle-"},
      {"measurement": "Maximum particle size (length) μm", "result": 800, "unit": "μm"},
      {"measurement": "Maximum particle size (thickness) μm", "result": 55, "unit": "μm"}
    ]},
    {"smiles": "NCCS(=O)(=O)O", "note": "[Example 6, taurine]", "values": [
      {"measurement": "Crystalline form", "result": "Needle-"},
      {"measurement": "Maximum particle size (length) μm", "result": 250, "unit": "μm"},
      {"measurement": "Maximum particle size (thickness) μm", "result": 25, "unit": "μm"}
    ]},
    {"smiles": "NCCS(=O)(=O)O", "note": "[Example 7, taurine]", "values": [
      {"measurement": "Crystalline form", "result": "Needle-"},
      {"measurement": "Maximum particle size (length) μm", "result": 250, "unit": "μm"},
      {"measurement": "Maximum particle size (thickness) μm", "result": 20, "unit": "μm"}
    ]},
    {"smiles": "NCCS(=O)(=O)O", "note": "[Example 8, taurine]", "values": [
      {"measurement": "Crystalline form", "result": "Needle-"},
      {"measurement": "Maximum particle size (length) μm", "result": 220, "unit": "μm"},
      {"measurement": "Maximum particle size (thickness) μm", "result": 30, "unit": "μm"}
    ]},
    {"smiles": "NCCS(=O)(=O)O", "note": "[Example 9, taurine]", "values": [
      {"measurement": "Crystalline form", "result": "Needle-"},
      {"measurement": "Maximum particle size (length) μm", "result": 150, "unit": "μm"},
      {"measurement": "Maximum particle size (thickness) μm", "result": 40, "unit": "μm"}
    ]},
    {"smiles": "NCCS(=O)(=O)O", "note": "[Example 10, taurine]", "values": [
      {"measurement": "Crystalline form", "result": "Needle-"},
      {"measurement": "Maximum particle size (length) μm", "result": 720, "unit": "μm"},
      {"measurement": "Maximum particle size (thickness) μm", "result": 25, "unit": "μm"}
    ]},
    {"smiles": "NCCS(=O)(=O)O", "note": "[Example 11, taurine]", "values": [
      {"measurement": "Crystalline form", "result": "Needle-"},
      {"measurement": "Maximum particle size (length) μm", "result": 370, "unit": "μm"},
      {"measurement": "Maximum particle size (thickness) μm", "result": 20, "unit": "μm"}
    ]}
  ]
}
